These results are taken from PMC5651918, “Evolving stability and pH-dependent activity of the high redox potential Botrytis aclada laccase for enzymatic fuel cells” (Scientific Reports, 2017).

The test addresses T1, Botrytis aclada laccase (BaL WT) (Botrytis aclada, UniProt H8ZRU2).
T1 construct: BaL cDNA, secreted recombinant from Pichia pastoris X-33 (pGAPZ A, pBaLac)
T1 sequence (H8ZRU2 20-580): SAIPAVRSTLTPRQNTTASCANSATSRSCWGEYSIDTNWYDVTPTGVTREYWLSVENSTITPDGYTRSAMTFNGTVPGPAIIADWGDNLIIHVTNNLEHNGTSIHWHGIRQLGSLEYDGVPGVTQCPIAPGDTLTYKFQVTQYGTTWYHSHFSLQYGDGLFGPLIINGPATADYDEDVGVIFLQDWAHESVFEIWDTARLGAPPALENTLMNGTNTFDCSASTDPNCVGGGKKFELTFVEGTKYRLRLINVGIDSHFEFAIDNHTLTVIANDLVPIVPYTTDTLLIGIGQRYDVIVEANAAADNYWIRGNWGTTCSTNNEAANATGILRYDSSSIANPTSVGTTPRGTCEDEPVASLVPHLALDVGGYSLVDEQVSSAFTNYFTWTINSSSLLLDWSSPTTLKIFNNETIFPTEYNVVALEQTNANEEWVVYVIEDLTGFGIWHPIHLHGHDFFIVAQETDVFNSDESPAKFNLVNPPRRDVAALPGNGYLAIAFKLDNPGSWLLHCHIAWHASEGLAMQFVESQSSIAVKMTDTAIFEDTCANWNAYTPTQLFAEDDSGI
Briefly: steady-state photometric kinetics, Michaelis-Menten fit. The format is biochemical. The note with it: pH 3.0, 4.5 and 6.0; apparent constants.

For `CCn1c(=NN=c2sc3cc(S(=O)(=O)O)ccc3n2CC)sc2cc(S(=O)(=O)O)ccc21` [ABTS, 2,2′-azino-bis(3-ethylbenzothiazoline-6-sulfonic acid)], the KM entry was “apparent steady-state kinetic constants were determined for the two substrates DMP and ABTS”. As to `COc1cccc(OC)c1O` [DMP, 2,6-dimethoxyphenol], the KM entry was “apparent steady-state kinetic constants were determined for the two substrates DMP and ABTS”.
